Results taken from patent publication US8822448B2, “Pyrazoloquinoline compound” (Astellas Pharma Inc., priority 2010, dated 2014).

Experiments:
PDE9 = PDE9 (Homo sapiens (Human), UniProt O76083); assay: PDE9-inhibiting activity (SPA enzyme assay); type: biochemical; conditions: IC50 values; cGMP 1 μM substrate, 30° C.; read-out: PDE9 inhibition
Method: The PDE9-inhibiting activity was measured by the following method. That is, to a buffer solution containing tris(hydroxymethyl)aminomethane-hydrochloric acid (40 mM, pH 8.0), magnesium chloride (5 mM), and 2-mercaptoethanol (4 mM) were added cGMP (1 μM) and ^3H-cGMP (0.33 μCi/ml) to give a substrate buffer solution. A test substance solution and an enzyme solution which had been adjusted to an optimal concentration were added thereto to perform a reaction at 30° C. The enzyme reaction was stopped by the addition of Scintillation Proximity Assay (SPA) Beads (Perkin Elmer, USA) containing 5 mM 3-isobutyl-1-methylxanthine (IBMX). For the enzyme activity, the amount of 5′-GMP, which is a reaction degradation product bound to SPA beads, was measured with a TopCount microplate reader (Hewlett Packard, USA). The inhibitory rate was calculated by taking the radioactivity of the control containing no test substance as (A), taking the radioactivity of the blank containing no enzyme as (B), and taking the radioactivity of the test substance as (C), and using the following equation.

[1] = test system: urethra relaxation response; assay: Simultaneous measurement model for rat bladder contraction/urethra relaxation responses; type: in vivo; conditions: female SD rat, increase relative to the solvent administration group, read-out: Ratio with increased urethra relaxation time during voiding (vs vehicle) (%)
Method: Simultaneous measurement of the bladder contraction and urethra relaxation responses using a rat was carried out with a partial modification of a method in Wibberley et al. (Wibberley, A., et al., Br. J. Pharmacol., 136: pp. 399-414 (2002)). That is, a female Sprague-Dawley (SD) rat (Charles River Laboratories Japan, Inc.) was anesthetized with urethane, and the bladder was exposed by a midline incision in the lower abdomen. A double lumen cannula (a cannula having a dual structure by PE190 and PE50) from the bladder apex was inserted into the bladder, and the bladder apex and the cannula were fixed by sutures at a point where the tip reached the proximal urethra. While infusing physiological saline into the urethra through the outer cannula, the urethral inner pressure was measured by a pressure transducer through the inner cannula with a saline solution infused into the urethra through the outer cannula. On the other hand, a single cannula (PESO) was inserted into the bladder from the bladder apex and placed therein. The inner pressure of the bladder was measured through this cannula. After a postoperative stabilization period had passed, physiological saline was infused into the bladder through the cannula of the bladder apex to cause a bladder contraction reaction, and thus cause a urethra relaxation response accompanying the bladder contraction reflex. The test substance was administered intravenously or intraduodenally.

Sequence of PDE9 (O76083 whole entry): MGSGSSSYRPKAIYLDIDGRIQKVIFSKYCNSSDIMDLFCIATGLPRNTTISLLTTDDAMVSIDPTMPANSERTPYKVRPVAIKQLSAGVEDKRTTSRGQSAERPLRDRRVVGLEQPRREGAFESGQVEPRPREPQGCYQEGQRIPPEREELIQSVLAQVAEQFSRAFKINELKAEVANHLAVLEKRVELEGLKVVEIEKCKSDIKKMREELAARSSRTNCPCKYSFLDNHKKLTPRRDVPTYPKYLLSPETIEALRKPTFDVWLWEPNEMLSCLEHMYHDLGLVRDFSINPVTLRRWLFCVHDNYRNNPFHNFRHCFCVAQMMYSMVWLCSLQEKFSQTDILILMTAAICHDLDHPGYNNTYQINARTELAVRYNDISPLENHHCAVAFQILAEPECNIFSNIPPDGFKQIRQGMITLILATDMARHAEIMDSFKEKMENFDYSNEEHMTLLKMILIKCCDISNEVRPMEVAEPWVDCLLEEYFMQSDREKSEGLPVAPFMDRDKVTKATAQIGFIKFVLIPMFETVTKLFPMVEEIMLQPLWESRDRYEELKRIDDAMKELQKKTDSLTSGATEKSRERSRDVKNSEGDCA

Row | IC50 (PDE9) | melting point | Compound | response vs control in vivo at 1 mg/kg [1]
1 | 14 nM | 209 to 210 °C | Cc1cc2[nH]c(=O)c3cnn(C4CCOCC4)c3c2cc1C(=O)N1CCC(OC[C@H](C)F)CC1 [Example 95] | 166%
2 | 5.2 nM | 174 to 176 °C | Cc1cc2[nH]c(=O)c3cnn(C4CCOCC4)c3c2cc1C(=O)N1CCN(CCC(F)(F)F)CC1.Cl [Example 128] | 136%
